T/C data for 15 molecules are collected here from PubChem BioAssay AID180 (DTP/NCI, 2004).

SMILES strings stand for the structures. “And” between values parts separate entries of the source, which are not always exact repeats. Equal values may be shown once.

The assay concerns BDF1 mice, Adenocarcinoma 755 s.c., tumor weight T/C. Description: NCI In Vivo Anticancer Drug Screen. Data for tumor model Adenocarcinoma 755 (subcutaneous) in B6D2F1 (BDF1) mice. Conditions: endpoint: mean tumor weight, higher = larger tumour. The gist of the method: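 Values express treated (T) relative to vehicle-dosed control (C) animals, based on survival or tumour size measured after compound treatment of mice bearing a transplanted tumour.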

Setting [1] is: dose: 25.0 mg/kg/injection, schedule: Q01DX011 (ip), vehicle: methylcellulose (MC).
Setting [2] is: dose: 75.0 mg/kg/injection, schedule: Q01DX011 (ip), vehicle: methylcellulose (MC).
Setting [3] is: dose: 225.0 mg/kg/injection, schedule: Q01DX011 (ip), vehicle: methylcellulose (MC).
The mark [4] stands for this setting: dose: 50.0 mg/kg/injection, schedule: Q01DX011 (ip), vehicle: carboxymethylcellulose (CMC).
The mark [5] stands for this setting: dose: 25.0 mg/kg/injection, schedule: Q01DX011 (ip), vehicle: carboxymethylcellulose (CMC).

Take `CC(=O)OCC(=O)[C@@]1(O)CC[C@H]2[C@@H]3CCC4=CC(=O)C=C[C@]4(C)[C@H]3C(=O)C[C@@]21C`: the T/C was 68 % of control (dose: 0.9 mg/kg/injection, schedule: Q01DX011 (sc), vehicle: steriod suspending solution); 72 % of control (dose: 1.7 mg/kg/injection, schedule: Q01DX011 (sc), vehicle: steriod suspending solution); 76 % of control (dose: 3.5 mg/kg/injection, schedule: Q01DX011 (sc), vehicle: steriod suspending solution); 64 % of control (dose: 3.7 mg/kg/injection, schedule: Q01DX011 (sc), vehicle: steriod suspending solution); 106 % of control (dose: 7.0 mg/kg/injection, schedule: Q01DX011 (sc), vehicle: steriod suspending solution); 39 % of control (dose: 7.1 mg/kg/injection, schedule: Q01DX011 (sc), vehicle: steriod suspending solution). Further, the T/C was 50 % of control (dose: 7.5 mg/kg/injection, schedule: Q01DX011 (sc), vehicle: steriod suspending solution); 52 % of control (dose: 14.0 mg/kg/injection, schedule: Q01DX011 (sc), vehicle: steriod suspending solution); 44 % of control (dose: 14.3 mg/kg/injection, schedule: Q01DX011 (sc), vehicle: steriod suspending solution); 27 % of control and 33 % of control (dose: 15.0 mg/kg/injection, schedule: Q01DX011 (sc), vehicle: steriod suspending solution); 19 % of control and 26 % of control and 27 % of control (dose: 28.7 mg/kg/injection, schedule: Q01DX011 (sc), vehicle: steriod suspending solution); 13 % of control and 16 % of control (dose: 30.0 mg/kg/injection, schedule: Q01DX011 (sc), vehicle: steriod suspending solution). For the same molecule, the T/C was 3 % of control and 11 % of control and 17 % of control (dose: 57.5 mg/kg/injection, schedule: Q01DX011 (sc), vehicle: steriod suspending solution); 12 % of control (dose: 60.0 mg/kg/injection, schedule: Q01DX011 (sc), vehicle: steriod suspending solution); 5 % of control (dose: 115.0 mg/kg/injection, schedule: Q01DX011 (sc), vehicle: steriod suspending solution).

With `O=S=Nc1ccccc1`, under “dose: 351.0 mg/kg/injection, schedule: Q01DX011 (ip), vehicle: carboxymethylcellulose (CMC)”, the T/C was 64 % of control.

As for `O=C1NC(=O)c2cc([N+](=O)[O-])cc3cccc1c23`, the T/C reads like this: (dose: 85.0 mg/kg/injection, schedule: Q01DX011 (ip), vehicle: methylcellulose (MC)) 104 % of control; (dose: 680.0 mg/kg/injection, schedule: Q01DX011 (ip), vehicle: methylcellulose (MC)) 89 % of control.

For the molecule `Cn1c(=O)c2[nH]c(COCc3nc4c([nH]3)c(=O)n(C)c(=O)n4C)nc2n(C)c1=O`, the T/C is 48 % of control under setting [1], 65 % of control under setting [2] and 21 % of control under setting [3].

In the case of `CCCCNC(=O)c1n[se]nc1NC(N)=O`, the T/C (dose: 4.0 mg/kg/injection, schedule: Q01DX011 (ip), vehicle: carboxymethylcellulose (CMC)) was 94 % of control; the T/C (dose: 8.0 mg/kg/injection, schedule: Q01DX011 (ip), vehicle: carboxymethylcellulose (CMC)) is 91 % of control; the T/C (dose: 16.0 mg/kg/injection, schedule: Q01DX011 (ip), vehicle: carboxymethylcellulose (CMC)) is 61 % of control; the T/C (dose: 37.5 mg/kg/injection, schedule: Q01DX011 (ip), vehicle: carboxymethylcellulose (CMC)) was 166 % of control; the T/C under setting [4] is 119 % of control.

For the molecule `O=C(Nc1nc2c(ncn2C2CC(OC(=O)c3ccccc3)C(COC(=O)c3ccccc3)O2)c(=O)[nH]1)c1ccccc1` (centres undefined), the T/C (dose: 30.0 mg/kg/injection, schedule: Q01DX011 (ip), vehicle: carboxymethylcellulose (CMC)) is 103 % of control; the T/C (dose: 60.0 mg/kg/injection, schedule: Q01DX011 (ip), vehicle: carboxymethylcellulose (CMC)) was 94 % of control; the T/C (dose: 120.0 mg/kg/injection, schedule: Q01DX011 (ip), vehicle: carboxymethylcellulose (CMC)) is 113 % of control; the T/C (dose: 240.0 mg/kg/injection, schedule: Q01DX011 (ip), vehicle: carboxymethylcellulose (CMC)) is 124 % of control.

With `Nc1nc(SC2=NCCN2)c2[nH]cnc2n1`, the T/C (dose: 0.75 mg/kg/injection, schedule: Q01DX011 (ip), vehicle: carboxymethylcellulose (CMC)) was 22 % of control; the T/C (dose: 1.5 mg/kg/injection, schedule: Q01DX011 (ip), vehicle: carboxymethylcellulose (CMC)) is 6 % of control; the T/C (dose: 3.0 mg/kg/injection, schedule: Q01DX011 (ip), vehicle: carboxymethylcellulose (CMC)) was 6 % of control; the T/C (dose: 90.0 micrograms/kg/injection, schedule: Q01DX011 (ip), vehicle: carboxymethylcellulose (CMC)) is 57 % of control; the T/C (dose: 187.0 micrograms/kg/injection, schedule: Q01DX011 (ip), vehicle: carboxymethylcellulose (CMC)) is 88 % of control; the T/C (dose: 370.0 micrograms/kg/injection, schedule: Q01DX011 (ip), vehicle: carboxymethylcellulose (CMC)) is 79 % of control. Further, the T/C (dose: 750.0 micrograms/kg/injection, schedule: Q01DX011 (ip), vehicle: carboxymethylcellulose (CMC)) was 33 % of control.

Take `OCCn1cnc2c(=S)nc[nH]c21`: the T/C is, setting by setting: under setting [1], 38 % of control; under setting [2], 74 % of control; under setting [3], 34 % of control.

In the case of `Clc1ncnc2c1ncn2C1CCCCC1`, the T/C by setting is: (dose: 6.25 mg/kg/injection, schedule: Q01DX011 (ip), vehicle: carboxymethylcellulose (CMC)) 91 % of control; (dose: 12.5 mg/kg/injection, schedule: Q01DX011 (ip), vehicle: carboxymethylcellulose (CMC)) 73 % of control; under setting [5], 81 % of control.

For `COc1ccc(C(=O)OCC2OC(n3cnc4c(=S)nc(N)[nH]c43)C(OC(=O)c3ccc(OC)cc3)C2OC(=O)c2ccc(OC)cc2)cc1` (centres undefined), the T/C was 88 % of control under setting [5]; 107 % of control under setting [4]; 48 % of control (dose: 100.0 mg/kg/injection, schedule: Q01DX011 (ip), vehicle: carboxymethylcellulose (CMC)); 7 % of control (dose: 200.0 mg/kg/injection, schedule: Q01DX011 (ip), vehicle: carboxymethylcellulose (CMC)).

Turning to `CC(=O)OCC(=O)[C@@]1(O)CC[C@H]2[C@@H]3C[C@H](C)C4=CC(=O)C=C[C@]4(C)[C@@]3(F)[C@@H](O)C[C@@]21C`, the T/C is 101 % of control (dose: 0.06 mg/kg/injection, schedule: Q01DX011 (sc), vehicle: steriod suspending solution); 87 % of control (dose: 0.13 mg/kg/injection, schedule: Q01DX011 (sc), vehicle: steriod suspending solution); 49 % of control (dose: 4.0 mg/kg/injection, schedule: Q01DX011 (sc), vehicle: steriod suspending solution); 48 % of control (dose: 5.0 mg/kg/injection, schedule: Q01DX011 (sc), vehicle: steriod suspending solution); 37 % of control (dose: 9.0 mg/kg/injection, schedule: Q01DX011 (sc), vehicle: steriod suspending solution); 34 % of control (dose: 10.0 mg/kg/injection, schedule: Q01DX011 (sc), vehicle: steriod suspending solution). Further, the T/C is, setting by setting: (dose: 18.0 mg/kg/injection, schedule: Q01DX011 (sc), vehicle: steriod suspending solution) 37 % of control and 51 % of control; (dose: 20.0 mg/kg/injection, schedule: Q01DX011 (sc), vehicle: steriod suspending solution) 21 % of control; (dose: 37.0 mg/kg/injection, schedule: Q01DX011 (sc), vehicle: steriod suspending solution) 13 % of control and 22 % of control; (dose: 75.0 mg/kg/injection, schedule: Q01DX011 (sc), vehicle: steriod suspending solution) 15 % of control.

As to `OB(O)O`, the T/C is, setting by setting: (dose: 500.0 mg/kg/injection, schedule: Q#A X022 (oral), vehicle: water) 39 % of control and 45 % of control; (dose: 750.0 mg/kg/injection, schedule: Q#A X022 (oral), vehicle: water) 16 % of control; (dose: 1000.0 mg/kg/injection, schedule: Q#A X022 (oral), vehicle: water) 9 % of control.

As to `CCC1CN1P(=S)(N1CC1CC)N1CC1CC` (centres undefined), the T/C was 104 % of control (dose: 28.0 mg/kg/injection, schedule: Q01DX011 (ip), vehicle: saline); 28 % of control (dose: 56.0 mg/kg/injection, schedule: Q01DX011 (ip), vehicle: saline); 8 % of control (dose: 113.0 mg/kg/injection, schedule: Q01DX011 (ip), vehicle: saline).

As to `Cc1cnc2nc(N)nc(N)c2n1`, the T/C under setting [4] is 67 % of control and the T/C (dose: 75.0 mg/kg/injection, schedule: Q01DX011 (ip), vehicle: carboxymethylcellulose (CMC)) is 33 % of control.

For the molecule `COc1cc(C(=O)O)nc(SC)n1`, the T/C (dose: 15.0 mg/kg/injection, schedule: Q01DX011 (ip), vehicle: methylcellulose (MC)) was 115 % of control; the T/C (dose: 31.0 mg/kg/injection, schedule: Q01DX011 (ip), vehicle: methylcellulose (MC)) was 94 % of control; the T/C (dose: 62.0 mg/kg/injection, schedule: Q01DX011 (ip), vehicle: methylcellulose (MC)) is 88 % of control; the T/C (dose: 125.0 mg/kg/injection, schedule: Q01DX011 (ip), vehicle: methylcellulose (MC)) is 87 % of control.

One may read the T/C as the ratio of treated to control.
